Each block holds one compound with its values, some of them ahead of it.
Key:
HeLa [1] = experiment: Antiproliferative activity against human HeLa cells assessed as reduction in cell viability incubated for 72 hrs by MTT assay; type: functional, cell-based
A-375 = experiment: Antiproliferative activity against human A-375 cells assessed as reduction in cell viability incubated for 72 hrs by CelltiterGlo luminescent assay; settings: A-375, 72 h
MDA-MB-468 = experiment: cells; settings: Homo sapiens, MDA-MB-468, 72 h
Description: Antiproliferative activity against human MDA-MB-468 cells assessed as reduction in cell viability incubated for 72 hrs by CelltiterGlo luminescent assay

[2] = Antiproliferative activity against human RPE-1 cells assessed as reduction in cell viability incubated for 72 hrs by CelltiterGlo luminescent assay; type: toxicity, cell-based; settings: RPE-1 cells (TERT-RPE1)
HT-1080 = experiment: Antiproliferative activity against human HT-1080 cells assessed as reduction in cell viability incubated for 72 hrs by CelltiterGlo luminescent assay; settings: HT-1080, 72 h
BT-474 = experiment: Antiproliferative activity against human BT-474 cells assessed as reduction in cell viability incubated for 72 hrs by CelltiterGlo luminescent assay; settings: BT-474, 72 h
[3] = Antiproliferative activity against human HEK293 cells assessed as reduction in cell viability incubated for 72 hrs by CelltiterGlo luminescent assay; type: toxicity, cell-based
HeLa [4] = experiment: Antiproliferative activity against human HeLa cells assessed as reduction in cell viability incubated for 72 hrs by CelltiterGlo luminescent assay; type: functional, cell-based
[5] = Antiproliferative activity against human Hermes 3C cells assessed as reduction in cell viability incubated for 72 hrs by CelltiterGlo luminescent assay; type: toxicity, cell-based
MCF7 = experiment: Antiproliferative activity against human MCF7 cells assessed as reduction in cell viability incubated for 72 hrs by CelltiterGlo luminescent assay; type: functional, cell-based; settings: MCF7, 72 h
[6] = Antiproliferative activity against human WM1366 cells assessed as reduction in cell viability incubated for 72 hrs by CelltiterGlo luminescent assay; settings: WM1366, 72 h
CAKI-1 = experiment: Antiproliferative activity against human CAKI-1 cells assessed as reduction in cell viability incubated for 72 hrs by CelltiterGlo luminescent assay; settings: CAKI-1, 72 h
[7] = Antiproliferative activity against human Melmet 5 cells assessed as reduction in cell viability incubated for 72 hrs by CelltiterGlo luminescent assay; settings: Melmet 5, 72 h
MES-SA = experiment: Antiproliferative activity against human MES-SA cells assessed as reduction in cell viability incubated for 72 hrs by CelltiterGlo luminescent assay
HeLa [8] = experiment: Antiproliferative activity against human HeLa cells assessed as inhibition of cell growth incubated for 72 hrs in presence of verapamil by MTT assay; type: functional, cell-based
cells = settings: Homo sapiens, MDA-MB-468, 72 h
HeLa [9] = experiment: Antiproliferative activity against human HeLa cells assessed as inhibition of cell growth incubated for 72 hrs in absence of verapamil by MTT assay; type: functional, cell-based

SMILES: CCC1=C[C@@H]2CN(C1)Cc1c([nH]c3ccccc13)[C@@](C(=O)OC)(c1cc3c(cc1OC)N(C)[C@H]1[C@@](O)(C(=O)OC)[C@H](OC(C)=O)[C@]4(CC)C=CCN5CC[C@]31[C@@H]54)C2 [VINORELBINE]
IC50 (A-375): 0.6 nM
IC50 (MDA-MB-468): 0.1 nM
IC50 at 72 h [2]: 9.3 nM
IC50 (HT-1080): 0.1 nM
IC50 (BT-474): 0.3 nM
IC50 at 72 h [3]: 15.9 nM
IC50 (HeLa [4]): 0.3 nM
IC50 at 72 h [5]: 0.5 nM
IC50 (MCF7): 0.8 nM
IC50 [6]: 0.9 nM
IC50 (CAKI-1): 0.3 nM
IC50 [7]: 0.1 nM
IC50 (MES-SA): 0.4 nM

SMILES: COc1cc(S(=O)(=O)N(C)c2ccc3c(c2)c(C=O)cn3C)cc(OC)c1OC
IC50 (A-375): 8.7 nM
IC50 (MDA-MB-468): 17.2 nM
IC50 at 72 h [2]: 12 nM
IC50 (HeLa [1]): 16.5 nM
IC50 (HT-1080): 8.1 nM
IC50 (HeLa [8]): 14.6 nM
IC50 (BT-474): 10.6 nM
IC50 at 72 h [3]: 50.2 nM
IC50 (HeLa [4]): 5.3 nM
IC50 at 72 h [5]: 52.8 nM
IC50 (MCF7): 9.3 nM
IC50 [6]: 11.6 nM
IC50 (CAKI-1): 12.9 nM
IC50 (cells): 32.9 nM
IC50 [7]: 3.9 nM
IC50 (MES-SA): 17.9 nM
IC50 (HeLa [9]): 18.4 nM

SMILES: COc1cc(S(=O)(=O)N(CCCN2CCOCC2)c2ccc3c(ccn3C)c2)cc(OC)c1OC
IC50 (HeLa [1]): > 1000 nM

SMILES: CCOC(=O)CN(c1ccc2c(ccn2C)c1)S(=O)(=O)c1cc(OC)c(OC)c(OC)c1
IC50 (HeLa [1]): > 1000 nM

SMILES: COc1cc(S(=O)(=O)N(CC#N)c2ccc3c(c2)c(C(N)=O)cn3C)cc(OC)c1OC
IC50 (A-375): 48.3 nM
IC50 (MDA-MB-468): 20.3 nM
IC50 at 72 h [2]: 33 nM
IC50 (HeLa [1]): 50.9 nM
IC50 (HT-1080): 16.6 nM
IC50 (HeLa [8]): 26.4 nM
IC50 (BT-474): 40.8 nM
IC50 at 72 h [3]: 282 nM
IC50 (HeLa [4]): 68.8 nM
IC50 at 72 h [5]: 88.5 nM
IC50 (MCF7): 48.6 nM
IC50 [6]: 36 nM
IC50 (CAKI-1): 98.3 nM
IC50 (cells): 72.9 nM
IC50 [7]: 16.2 nM
IC50 (MES-SA): 14.2 nM
IC50 (HeLa [9]): 50.9 nM

SMILES: COc1cc(S(=O)(=O)N(CCCCN2CCOCC2)c2ccc3c(ccn3C)c2)cc(OC)c1OC
IC50 (HeLa [1]): > 1000 nM

SMILES: COc1cc(S(=O)(=O)N(CCCCCCBr)c2ccc3c(ccn3C)c2)cc(OC)c1OC
IC50 (HeLa [1]): > 1000 nM

SMILES: COc1cc(S(=O)(=O)N(CCN2CCOCC2)c2ccc3c(ccn3C)c2)cc(OC)c1OC
IC50 (HeLa [1]): > 1000 nM

SMILES: COc1cc(S(=O)(=O)N(CCCCC(=O)O)c2ccc3c(ccn3C)c2)cc(OC)c1OC
IC50 (HeLa [1]): > 1000 nM

Continued, in another order:

IC50 (HeLa [1]): > 1000 nM
SMILES: COc1cc(S(=O)(=O)N(Cc2cccc([N+](=O)[O-])c2)c2ccc3c(ccn3C)c2)cc(OC)c1OC

IC50 (HeLa [1]): 79.8 nM
SMILES: C#CCN(c1ccc2c(ccn2C)c1)S(=O)(=O)c1cc(OC)c(OC)c(OC)c1

IC50 (HeLa [1]): > 1000 nM
SMILES: CCOC(=O)CCCCN(c1ccc2c(ccn2C)c1)S(=O)(=O)c1cc(OC)c(OC)c(OC)c1

IC50 (HeLa [1]): > 1000 nM
SMILES: COc1cc(S(=O)(=O)N(CCCC(=O)O)c2ccc3c(ccn3C)c2)cc(OC)c1OC

IC50 (HeLa [1]): > 1000 nM
SMILES: COc1cc(S(=O)(=O)N(Cc2ccc([N+](=O)[O-])cc2)c2ccc3c(ccn3C)c2)cc(OC)c1OC

IC50 (HeLa [1]): > 1000 nM
SMILES: COc1cc(S(=O)(=O)N(CCCBr)c2ccc3c(ccn3C)c2)cc(OC)c1OC

IC50 (A-375): 4.5 nM
IC50 (MDA-MB-468): 3.1 nM
IC50 (HT-1080): 1.5 nM
IC50 (BT-474): 21.4 nM
IC50 (HeLa [4]): 1 nM
IC50 (MCF7): 3.9 nM
IC50 (cells): 8.3 nM
SMILES: CC(=O)O[C@@]12CO[C@@H]1C[C@H](O)[C@@]1(C)C(=O)[C@H](O)C3=C(C)[C@@H](OC(=O)[C@H](O)[C@@H](NC(=O)OC(C)(C)C)c4ccccc4)C[C@@](O)([C@@H](OC(=O)c4ccccc4)[C@H]21)C3(C)C [DOCETAXEL ANHYDROUS]
IC50 at 72 h [2]: 8.2 nM
IC50 at 72 h [3]: 7.5 nM
IC50 at 72 h [5]: 1.7 nM
IC50 [6]: 8.5 nM
IC50 (CAKI-1): 2.7 nM
IC50 [7]: 9.5 nM
IC50 (MES-SA): 3.4 nM

IC50 (HeLa [1]): > 1000 nM
SMILES: COc1cc(S(=O)(=O)N(Cc2ccccc2)c2ccc3c(ccn3C)c2)cc(OC)c1OC

IC50 (HeLa [1]): > 1000 nM
SMILES: COc1cc(S(=O)(=O)N(Cc2cccc(N)c2)c2ccc3c(ccn3C)c2)cc(OC)c1OC

From ChEMBL document CHEMBL5579852, “Promising anti-proliferative indolic benzenesulfonamides alter mechanisms with sulfonamide nitrogen substituents” (Eur J Med Chem, 2024)
